From article PMC6749370, “Antibacterial Evaluation, In Silico Characters and Molecular Docking of Schiff Bases Derived from 5-aminopyrazoles” (Molecules, 2019)
Converted amounts (≈) assume the structure as drawn. Marks after values point to notes of the source that are not given here.

Tests used:
[1] = tested on: Enterococcus faecalis (Ef); assay: Minimal inhibitory concentration against multi-drug resistant bacteria; assay type: cell-based; settings: NA: No Activity
Experimental: (§1) In vitro antibacterial activities against multi-drug resistant bacteria (MDRB) of Schiff bases 14–25 were performed at botany and microbiology department, Faculty of Science, Al-Azhar University, Cairo, Egypt. The antibacterial potential of 14–25 were investigated towards the multi-drug resistant bacteria (MDRB). The results were summarized as the diameter of the inhibition zones in mm and minimal inhibitory concentration (MIC, µg/mL) values in Table 2.
(§2) The synthesized compounds, Schiff bases 14–25, were in vitro evaluation of their antibacterial properties against multi-drug resistant bacteria (MDRB). Examples of Gram-positive bacteria are Staphylococcus aureus (MRSA, Sa), Staphylococcus epidermis (Sp), and Enterococcus faecalis (Ef). Examples of Gram-negative bacteria are Acinetobacter baumannii (Ab), Enterobacter cloaca (Ecl), and Escherichia coli (Ec). All the tested strain was identified by Vitek®2 system. The multi-drug resistant to antibiotics such as Ampicillin, Cephalexin, Colisin, Ipemenem, and Meropenem was verified.

Escherichia coli (Ec) = assay: as above; assay type: cell-based; settings: NA: No Activity
Experimental: as §1, §2

[2] = tested on: Staphylococcus aureus (MRSA, Sa); assay: as above; assay type: cell-based; settings: NA: No Activity
Experimental: as §1, §2

[3] = tested on: Enterobacter cloaca (Ecl); assay: as above; assay type: cell-based; settings: NA: No Activity
Experimental: as §1, with “(MDRB).” for “(MDRB). The results were summarized as the diameter of the inhibition zones in mm and minimal inhibitory concentration (MIC, µg/mL) values in Table 2.”
as §2, with “system.” for “system. The multi-drug resistant to antibiotics such as Ampicillin, Cephalexin, Colisin, Ipemenem, and Meropenem was verified.”

[4] = tested on: Staphylococcus epidermis (Se); assay: as above; assay type: cell-based; settings: NA: No Activity
Experimental: as §1, with “(MDRB).” for “(MDRB). The results were summarized as the diameter of the inhibition zones in mm and minimal inhibitory concentration (MIC, µg/mL) values in Table 2.”
as §2, with “system.” for “system. The multi-drug resistant to antibiotics such as Ampicillin, Cephalexin, Colisin, Ipemenem, and Meropenem was verified.”

[5] = tested on: Acinetobacter baumannii (Ab); assay: as above; assay type: cell-based; settings: NA: No Activity
Experimental: as §1, with “(MDRB).” for “(MDRB). The results were summarized as the diameter of the inhibition zones in mm and minimal inhibitory concentration (MIC, µg/mL) values in Table 2.”
as §2, with “system.” for “system. The multi-drug resistant to antibiotics such as Ampicillin, Cephalexin, Colisin, Ipemenem, and Meropenem was verified.”

[6] = molecular target: Staphylococcus aureus DNA gyrase (Staphylococcus aureus, UniProt P0A0K8+P20831); assay: In vitro enzyme inhibition assay; assay type: biochemical; settings: mean of three values, read-out: IC50 (Mean ± SEM) DNA Gyrase
Sequence of Staphylococcus aureus DNA gyrase (P20831 whole entry): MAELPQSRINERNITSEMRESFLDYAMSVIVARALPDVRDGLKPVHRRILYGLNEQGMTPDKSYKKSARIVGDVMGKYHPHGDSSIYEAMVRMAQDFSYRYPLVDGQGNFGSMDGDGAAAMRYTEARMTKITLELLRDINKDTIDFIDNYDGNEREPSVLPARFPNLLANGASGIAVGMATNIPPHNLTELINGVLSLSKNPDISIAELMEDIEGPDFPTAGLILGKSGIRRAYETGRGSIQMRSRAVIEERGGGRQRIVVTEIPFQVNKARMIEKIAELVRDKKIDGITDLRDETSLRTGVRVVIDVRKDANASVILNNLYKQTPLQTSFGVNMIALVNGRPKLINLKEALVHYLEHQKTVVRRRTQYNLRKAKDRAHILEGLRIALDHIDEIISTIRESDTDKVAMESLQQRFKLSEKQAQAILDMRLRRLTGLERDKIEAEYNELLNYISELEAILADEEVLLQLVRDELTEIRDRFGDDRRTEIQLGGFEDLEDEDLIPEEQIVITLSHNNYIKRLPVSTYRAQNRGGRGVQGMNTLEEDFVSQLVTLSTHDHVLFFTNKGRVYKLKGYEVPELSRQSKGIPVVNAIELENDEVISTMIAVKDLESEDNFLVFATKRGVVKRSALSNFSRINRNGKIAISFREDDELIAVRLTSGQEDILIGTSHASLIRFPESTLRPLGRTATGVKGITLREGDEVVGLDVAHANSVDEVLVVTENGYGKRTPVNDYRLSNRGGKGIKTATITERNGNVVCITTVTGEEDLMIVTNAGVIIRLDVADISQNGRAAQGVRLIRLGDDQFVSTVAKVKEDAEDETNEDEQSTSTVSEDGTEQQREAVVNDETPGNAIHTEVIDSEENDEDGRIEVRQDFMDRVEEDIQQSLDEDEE
Sequence of Staphylococcus aureus DNA gyrase (P0A0K8 whole entry): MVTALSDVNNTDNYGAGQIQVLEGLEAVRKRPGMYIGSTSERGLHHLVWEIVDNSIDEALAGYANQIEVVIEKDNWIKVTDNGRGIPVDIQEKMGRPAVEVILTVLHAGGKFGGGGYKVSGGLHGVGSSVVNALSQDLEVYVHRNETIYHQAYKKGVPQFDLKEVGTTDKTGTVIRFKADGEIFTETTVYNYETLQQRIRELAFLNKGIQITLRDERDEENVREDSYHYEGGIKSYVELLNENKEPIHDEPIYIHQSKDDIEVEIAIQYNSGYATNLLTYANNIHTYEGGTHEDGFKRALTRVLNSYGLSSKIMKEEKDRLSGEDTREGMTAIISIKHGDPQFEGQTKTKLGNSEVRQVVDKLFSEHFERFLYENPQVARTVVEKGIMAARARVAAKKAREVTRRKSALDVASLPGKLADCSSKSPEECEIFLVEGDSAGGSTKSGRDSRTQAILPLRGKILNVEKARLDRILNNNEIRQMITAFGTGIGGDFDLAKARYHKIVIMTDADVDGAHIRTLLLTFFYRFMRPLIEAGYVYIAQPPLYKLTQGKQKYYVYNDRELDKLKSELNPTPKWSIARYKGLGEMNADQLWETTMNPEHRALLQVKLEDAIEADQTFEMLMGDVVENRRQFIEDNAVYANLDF

Topoisomerase IV = Topoisomerase IV (Staphylococcus aureus, UniProt P0C1S7+P0C1U9); assay: In vitro enzyme inhibition assay; assay type: biochemical
Sequence of Topoisomerase IV (P0C1S7 whole entry): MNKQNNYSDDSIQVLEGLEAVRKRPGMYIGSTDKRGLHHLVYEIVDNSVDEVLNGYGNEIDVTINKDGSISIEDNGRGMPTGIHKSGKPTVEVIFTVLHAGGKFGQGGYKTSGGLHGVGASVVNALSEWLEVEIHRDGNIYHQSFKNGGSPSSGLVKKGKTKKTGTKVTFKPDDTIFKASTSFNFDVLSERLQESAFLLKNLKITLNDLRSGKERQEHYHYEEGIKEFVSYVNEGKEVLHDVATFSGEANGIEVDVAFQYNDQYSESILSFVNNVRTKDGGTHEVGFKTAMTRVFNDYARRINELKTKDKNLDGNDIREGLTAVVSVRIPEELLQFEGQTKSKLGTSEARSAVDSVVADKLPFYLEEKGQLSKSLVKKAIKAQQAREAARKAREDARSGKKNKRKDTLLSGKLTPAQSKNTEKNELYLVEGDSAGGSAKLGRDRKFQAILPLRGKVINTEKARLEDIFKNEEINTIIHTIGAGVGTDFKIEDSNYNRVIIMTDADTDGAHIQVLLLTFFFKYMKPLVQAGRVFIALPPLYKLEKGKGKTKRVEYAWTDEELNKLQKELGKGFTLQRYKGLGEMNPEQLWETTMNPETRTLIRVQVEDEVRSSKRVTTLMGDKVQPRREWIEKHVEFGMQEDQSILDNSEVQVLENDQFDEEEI
Sequence of Topoisomerase IV (P0C1U9 whole entry): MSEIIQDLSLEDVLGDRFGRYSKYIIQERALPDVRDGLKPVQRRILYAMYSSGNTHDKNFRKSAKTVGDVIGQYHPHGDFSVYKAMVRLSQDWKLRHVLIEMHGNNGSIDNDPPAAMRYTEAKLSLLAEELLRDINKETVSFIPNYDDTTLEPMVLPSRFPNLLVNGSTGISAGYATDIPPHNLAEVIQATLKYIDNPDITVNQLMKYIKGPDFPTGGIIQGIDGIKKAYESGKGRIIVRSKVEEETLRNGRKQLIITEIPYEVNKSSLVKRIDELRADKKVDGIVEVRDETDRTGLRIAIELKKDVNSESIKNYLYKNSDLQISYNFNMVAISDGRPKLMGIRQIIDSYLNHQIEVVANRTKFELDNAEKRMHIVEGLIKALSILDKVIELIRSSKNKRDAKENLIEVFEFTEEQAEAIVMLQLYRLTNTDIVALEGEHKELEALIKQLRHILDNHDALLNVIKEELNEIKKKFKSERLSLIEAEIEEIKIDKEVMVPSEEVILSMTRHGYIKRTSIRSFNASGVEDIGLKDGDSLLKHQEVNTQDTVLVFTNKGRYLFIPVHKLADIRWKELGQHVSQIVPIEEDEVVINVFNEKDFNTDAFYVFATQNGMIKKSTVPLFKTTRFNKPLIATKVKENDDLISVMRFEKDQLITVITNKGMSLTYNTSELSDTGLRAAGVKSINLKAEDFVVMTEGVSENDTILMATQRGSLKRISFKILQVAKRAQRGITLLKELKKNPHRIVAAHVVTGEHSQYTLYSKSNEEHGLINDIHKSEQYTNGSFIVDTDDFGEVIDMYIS

SMILES | MIC [1] | MIC (Escherichia coli (Ec)) | MIC [2] | MIC [3] | MIC [4] | Minimal inhibitory concentration (MIC), Sa [2] | MIC [5] | Minimal inhibitory concentration (MIC), Ab [5] | Minimal inhibitory concentration (MIC), Ec (Escherichia coli (Ec)) | IC50 [6] | IC50 (Topoisomerase IV) | Minimal inhibitory concentration (MIC), Ecl [3] | Minimal inhibitory concentration (MIC), Ef [1]
O=C(O)c1cn(C2CC2)c2cc(N3CCNCC3)c(F)cc2c1=O [Ciprofloxacin, reference compound] | 7.81 µg/mL (≈ 23.6 µM) | 7.81 µg/mL (≈ 23.6 µM) | 7.81 µg/mL (≈ 23.6 µM) | – | – | – | – | – | – | – | – | – | –
COc1ccc(Nc2n[nH]c(/N=C/c3ccccc3)c2C(=O)Nc2ccccc2)cc1 [Compound 14] | 15.6 µg/mL (≈ 38 µM) | – | 31.2 µg/mL (≈ 75.9 µM) | 125 µg/mL (≈ 304 µM) | 7.81 µg/mL (≈ 19 µM) | – | – | – | – | – | – | – | –
COc1ccc(Nc2n[nH]c(/N=C/c3ccc(C)cc3)c2C(=O)Nc2ccccc2)cc1 [Compound 15] | 31.2 µg/mL (≈ 73.4 µM) | 125 µg/mL (≈ 294 µM) | 62.5 µg/mL (≈ 147 µM) | 62.5 µg/mL (≈ 147 µM) | 15.6 µg/mL (≈ 36.7 µM) | 62.50 µg/mL (≈ 147 µM) | 62.5 µg/mL (≈ 147 µM) | – | – | – | – | – | –
COc1ccc(Nc2n[nH]c(/N=C/c3ccc(Cl)cc3)c2C(=O)Nc2ccccc2)cc1 [Compound 16] | 62.5 µg/mL (≈ 140 µM) | 125 µg/mL (≈ 280 µM) | 31.2 µg/mL (≈ 70.1 µM) | 62.5 µg/mL (≈ 140 µM) | 7.81 µg/mL (≈ 17.5 µM) | – | 15.6 µg/mL (≈ 35 µM) | 15.62 * µg/mL | – | – | – | – | –
COc1ccc(Nc2n[nH]c(/N=C/c3ccc(F)cc3)c2C(=O)Nc2ccccc2)cc1 [Compound 17] | – | 31.2 µg/mL (≈ 72.8 µM) | 62.5 µg/mL (≈ 146 µM) | 125 µg/mL (≈ 291 µM) | 31.2 µg/mL (≈ 72.8 µM) | – | 62.5 µg/mL (≈ 146 µM) | – | 31.25 * µg/mL | – | – | – | –
COc1ccc(Nc2n[nH]c(/N=C/c3ccccc3)c2C(=O)Nc2ccc(C)cc2)cc1 [Compound 18] | 31.2 µg/mL (≈ 73.4 µM) | 250 µg/mL (≈ 588 µM) | 15.6 µg/mL (≈ 36.7 µM) | 62.5 µg/mL (≈ 147 µM) | 7.81 µg/mL (≈ 18.4 µM) | 15.62 * µg/mL | 15.6 µg/mL (≈ 36.7 µM) | 15.62 * µg/mL | – | 1.68 ± 0.1 µM | 74.6 ± 1.2 µM | – | –
COc1ccc(Nc2n[nH]c(/N=C/c3ccc(C)cc3)c2C(=O)Nc2ccc(C)cc2)cc1 [Compound 19] | 15.6 µg/mL (≈ 35.5 µM) | 62.5 µg/mL (≈ 142 µM) | 31.2 µg/mL (≈ 71.1 µM) | 125 µg/mL (≈ 284 µM) | 15.6 µg/mL (≈ 35.5 µM) | – | 62.5 µg/mL (≈ 142 µM) | – | – | – | – | – | –
COc1ccc(Nc2n[nH]c(/N=C/c3ccc(Cl)cc3)c2C(=O)Nc2ccc(C)cc2)cc1 [Compound 20] | 250 µg/mL (≈ 544 µM) | – | 62.5 µg/mL (≈ 136 µM) | – | 125 µg/mL (≈ 272 µM) | – | – | – | – | – | – | – | –
COc1ccc(Nc2n[nH]c(/N=C/c3ccc(F)cc3)c2C(=O)Nc2ccc(C)cc2)cc1 [Compound 21] | – | – | 125 µg/mL (≈ 282 µM) | – | 62.5 µg/mL (≈ 141 µM) | – | – | – | – | – | – | – | –
COc1ccc(Nc2n[nH]c(/N=C/c3ccccc3)c2C(=O)Nc2ccc(Cl)cc2)cc1 [Compound 22] | 125 µg/mL (≈ 280 µM) | – | 250 µg/mL (≈ 561 µM) | 15.6 µg/mL (≈ 35 µM) | 125 µg/mL (≈ 280 µM) | – | – | – | – | – | – | 15.62 * µg/mL | –
COc1ccc(Nc2n[nH]c(/N=C/c3ccc(C)cc3)c2C(=O)Nc2ccc(Cl)cc2)cc1 [Compound 23] | 7.81 µg/mL (≈ 17 µM) | – | 31.2 µg/mL (≈ 67.9 µM) | 62.5 µg/mL (≈ 136 µM) | 15.6 µg/mL (≈ 34 µM) | – | – | – | – | – | – | – | 7.81 * µg/mL
COc1ccc(Nc2n[nH]c(/N=C/c3ccc(Cl)cc3)c2C(=O)Nc2ccc(Cl)cc2)cc1 [Compound 24] | 15.6 µg/mL (≈ 32.5 µM) | 125 µg/mL (≈ 260 µM) | 125 µg/mL (≈ 260 µM) | 62.5 µg/mL (≈ 130 µM) | 62.5 µg/mL (≈ 130 µM) | – | – | – | – | – | – | – | –
